Values after ≈ are worked out from the molar mass of the structure shown.
Key:
[1] = target: T1, PBP3 from Escherichia coli (K-12) (Escherichia coli, UniProt P0AD68); assay: Bocillin-FL fluorescence polarization competition binding, E. coli PBP3
T1 construct: made in house
Outline: (§1)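 Purified PBPs pre-incubated with inhibitor (E. coli PBP3 1.5 μM, 30 min; P. aeruginosa PBP3 0.75 μM, A. baumannii PBP1a 1 μM and PBP3 0.2 μM, 15 min), then Bocillin-FL 0.1 μM (0.05 μM for PBP1a) added; FP read up to 60 min. EC50 = concentration halving bound Bocillin-FL.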

[2] = target: T2, PBP3 from Pseudomonas aeruginosa (PAO1) (Pseudomonas aeruginosa, UniProt G3XD46); assay: Bocillin-FL fluorescence polarization competition binding, P. aeruginosa PBP3; conditions: Binding affinity to P. aeruginosa PBP3; fluorescence polarization competition binding assay using Bocillin-FL; read-out: P. aeruginosa PBP3 Potency
T2 construct: made in house
Outline: as §1

A. baumannii ATCC 19606 = assay: microbe, parasite or virus in culture; type: cell-based; conditions: Acinetobacter baumannii, ATCC19606, read-out: MIC, A. baumannii ATCC 19606
P. aeruginosa ATCC 35151 = assay: microbe, parasite or virus in culture; type: cell-based; conditions: Pseudomonas aeruginosa, ATCC35151, read-out: Minimum inhibitory concentration, P. aeruginosa ATCC 35151
[3] = tested on: P. aeruginosa (ΔmexAB-oprM); assay: Broth microdilution MIC in iron-depleted CAMHB (IDM); type: cell-based; conditions: Pseudomonas aeruginosa; iron-depleted CAMHB (IDM); […]; read-out: Minimum inhibitory concentration, P. aeruginosa ΔmexAB-oprM
P. aeruginosa CDC-0090 = assay: microbe, parasite or virus in culture; type: cell-based; conditions: Pseudomonas aeruginosa, CDC0090, read-out: Minimum inhibitory concentration, P. aeruginosa CDC-0090
A. baumannii CDC-0083 = assay: microbe, parasite or virus in culture; type: cell-based; conditions: Acinetobacter baumannii, CDC0083, read-out: MIC, A. baumannii CDC-0083
[4] = tested on: B. humptydooensis ATCC BAA-2767; assay: microbe, parasite or virus in culture; type: cell-based; conditions: Burkholderia humptydooensis, ATCCBAA2767, read-out: Minimum inhibitory concentration (MIC), B. humptydooensis ATCC BAA-2767
N. gonorrhoeae FA1090 = assay: Liquid broth MIC in Fastidious broth; conditions: Neisseria gonorrhoeae, FA1090, read-out: Minimum Inhibitory Concentration (MIC), N. gonorrhoeae FA 1090
N. gonorrhoeae WHO L = assay: Liquid broth MIC in Fastidious broth; conditions: Neisseria gonorrhoeae, read-out: Minimum Inhibitory Concentration (MIC), N. gonorrhoeae WHO L
N. gonorrhoeae WHO M = assay: Liquid broth MIC in Fastidious broth; conditions: Neisseria gonorrhoeae, read-out: Minimum Inhibitory Concentration (MIC), N. gonorrhoeae WHO M
N. gonorrhoeae WHO K = assay: Liquid broth MIC in Fastidious broth; conditions: Neisseria gonorrhoeae, read-out: Minimum Inhibitory Concentration (MIC), N. gonorrhoeae WHO K
N. gonorrhoeae WHO X = assay: Liquid broth MIC in Fastidious broth; conditions: Neisseria gonorrhoeae, read-out: Minimum Inhibitory Concentration (MIC), N. gonorrhoeae WHO X
N. gonorrhoeae WHO Z = assay: Liquid broth MIC in Fastidious broth; conditions: Neisseria gonorrhoeae, read-out: Minimum Inhibitory Concentration (MIC), N. gonorrhoeae WHO Z
N. gonorrhoeae CDC-0197 = assay: Liquid broth MIC in Fastidious broth; conditions: Neisseria gonorrhoeae, CDC0197, read-out: Minimum Inhibitory Concentration (MIC), N. gonorrhoeae CDC-0197

T1 sequence (P0AD68 1-577): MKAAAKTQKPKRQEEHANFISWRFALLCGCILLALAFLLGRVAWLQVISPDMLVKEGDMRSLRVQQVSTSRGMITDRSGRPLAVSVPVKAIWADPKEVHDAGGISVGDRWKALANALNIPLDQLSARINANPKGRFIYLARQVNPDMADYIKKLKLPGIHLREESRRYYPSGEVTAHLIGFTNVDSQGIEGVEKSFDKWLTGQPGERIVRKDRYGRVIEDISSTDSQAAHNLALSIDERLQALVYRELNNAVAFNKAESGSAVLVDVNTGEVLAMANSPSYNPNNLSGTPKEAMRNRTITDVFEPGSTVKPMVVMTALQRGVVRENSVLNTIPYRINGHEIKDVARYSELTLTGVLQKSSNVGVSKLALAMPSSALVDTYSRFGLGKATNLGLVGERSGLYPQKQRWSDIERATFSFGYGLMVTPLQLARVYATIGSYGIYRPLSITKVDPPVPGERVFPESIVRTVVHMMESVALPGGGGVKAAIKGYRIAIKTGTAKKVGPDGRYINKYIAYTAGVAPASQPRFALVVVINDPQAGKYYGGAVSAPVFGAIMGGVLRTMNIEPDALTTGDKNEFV
T2 sequence (G3XD46 whole entry): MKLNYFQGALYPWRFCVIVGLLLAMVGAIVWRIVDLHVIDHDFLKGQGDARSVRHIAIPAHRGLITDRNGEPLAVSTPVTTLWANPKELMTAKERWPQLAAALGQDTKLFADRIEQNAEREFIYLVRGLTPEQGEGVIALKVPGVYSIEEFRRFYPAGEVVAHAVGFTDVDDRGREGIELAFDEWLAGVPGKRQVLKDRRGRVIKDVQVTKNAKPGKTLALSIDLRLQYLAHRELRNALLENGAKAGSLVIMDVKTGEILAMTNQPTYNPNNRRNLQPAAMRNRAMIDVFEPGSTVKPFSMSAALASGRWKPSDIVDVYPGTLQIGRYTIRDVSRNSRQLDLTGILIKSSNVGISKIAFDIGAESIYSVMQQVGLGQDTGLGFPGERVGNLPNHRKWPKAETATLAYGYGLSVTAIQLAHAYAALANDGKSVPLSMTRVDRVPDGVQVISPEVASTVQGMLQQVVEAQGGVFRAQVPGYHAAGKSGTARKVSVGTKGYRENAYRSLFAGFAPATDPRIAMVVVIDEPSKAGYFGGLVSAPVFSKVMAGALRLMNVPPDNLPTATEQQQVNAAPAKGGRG

Row | Compound | EC50 [1] [µM] | IC50 [2] [µM] | MIC (A. baumannii ATCC 19606) [mg/L] | MIC (P. aeruginosa ATCC 35151) [mg/L] | MIC [3] [mg/L] | MIC (P. aeruginosa CDC-0090) [mg/L] | MIC (A. baumannii CDC-0083) [mg/L] | MIC [4] [mg/L] | MIC (N. gonorrhoeae FA1090) [mg/L] | MIC (N. gonorrhoeae WHO L) [mg/L] | MIC (N. gonorrhoeae WHO M) [mg/L] | MIC (N. gonorrhoeae WHO K) [mg/L] | MIC (N. gonorrhoeae WHO X) [mg/L] | MIC (N. gonorrhoeae WHO Z) [mg/L] | MIC (N. gonorrhoeae CDC-0197) [mg/L]
1 | O=C(CN1CCN(C(=O)NC(C(=O)N[C@H]2Cc3ccc(F)c(C(=O)O)c3OB2O)c2cc(F)c(O)c(O)c2Cl)C(=O)C1=O)Nc1ccc(O)cc1 (stereo partly drawn) [Example 230, (3R)-3-(2-(2-chloro-5-fluoro-3,4-dihydroxyphenyl)-2-(4-(2-((4-hydroxyphenyl)amino)-2-oxoethyl)-2,3-dioxopiperazine-1-carboxamido)acetamido)-7-fluoro-2-hydroxy-3,4-dihydro-2H-benzo[e][1,2]oxaborinine-8-carboxylic acid] | < 10 | < 10 | < 1 | < 1 | < 1 | 2 to 4 (≈ 2.73 to 5.47 µM) | < 1 | 2 to 4 (≈ 2.73 to 5.47 µM) | 1 to 2 (≈ 1.37 to 2.73 µM) | 16 to 32 (≈ 21.9 to 43.7 µM) | 4 to 8 (≈ 5.47 to 10.9 µM) | 16 to 32 (≈ 21.9 to 43.7 µM) | > 64 | 4 to 8 (≈ 5.47 to 10.9 µM) | 16 to 32 (≈ 21.9 to 43.7 µM)
2 | O=C(CN1CCN(C(=O)NC(C(=O)N[C@H]2Cc3ccc(F)c(C(=O)O)c3OB2O)c2cc(F)c(O)c(O)c2Cl)C(=O)C1=O)Nc1cccc(O)c1 (stereo partly drawn) [Example 231, (3R)-3-(2-(2-chloro-5-fluoro-3,4-dihydroxyphenyl)-2-(4-(2-((3-hydroxyphenyl)amino)-2-oxoethyl)-2,3-dioxopiperazine-1-carboxamido)acetamido)-7-fluoro-2-hydroxy-3,4-dihydro-2H-benzo[e][1,2]oxaborinine-8-carboxylic acid] | < 10 | < 10 | < 1 | < 1 | < 1 | 2 to 4 (≈ 2.73 to 5.47 µM) | > 128 | 8 to 16 (≈ 10.9 to 21.9 µM) | 1 to 2 (≈ 1.37 to 2.73 µM) | > 64 | 4 to 8 (≈ 5.47 to 10.9 µM) | 16 to 32 (≈ 21.9 to 43.7 µM) | > 64 | 16 to 32 (≈ 21.9 to 43.7 µM) | 16 to 32 (≈ 21.9 to 43.7 µM)
3 | O=C(CN1CCN(C(=O)NC(C(=O)N[C@H]2Cc3ccc(F)c(C(=O)O)c3OB2O)c2cc(F)c(O)c(O)c2Cl)C(=O)C1=O)Nc1ccccc1 (stereo partly drawn) [Example 232, (3R)-3-(2-(2-chloro-5-fluoro-3,4-dihydroxyphenyl)-2-(2,3-dioxo-4-(2-oxo-2-(phenylamino)ethyl)piperazine-1-carboxamido)acetamido)-7-fluoro-2-hydroxy-3,4-dihydro-2H-benzo[e][1,2]oxaborinine-8-carboxylic acid] | < 10 | < 10 | 2 to 4 (≈ 2.79 to 5.59 µM) | < 1 | < 1 | 2 to 4 (≈ 2.79 to 5.59 µM) | > 128 | > 128 | 1 to 2 (≈ 1.4 to 2.79 µM) | > 64 | 4 to 8 (≈ 5.59 to 11.2 µM) | > 64 | > 64 | 16 to 32 (≈ 22.4 to 44.7 µM) | > 64
4 | O=C(CN1CCN(C(=O)NC(C(=O)N[C@H]2Cc3ccc(F)c(C(=O)O)c3OB2O)c2cc(F)c(O)c(O)c2Cl)C(=O)C1=O)Nc1ccncc1 (stereo partly drawn) [Example 233, (3R)-3-(2-(2-chloro-5-fluoro-3,4-dihydroxyphenyl)-2-(2,3-dioxo-4-(2-oxo-2-(pyridin-4-ylamino)ethyl)piperazine-1-carboxamido)acetamido)-7-fluoro-2-hydroxy-3,4-dihydro-2H-benzo[e][1,2]oxaborinine-8-carboxylic acid] | < 10 | < 10 | < 1 | < 1 | < 1 | < 1 | < 1 | < 1 | 1 to 2 (≈ 1.4 to 2.79 µM) | > 64 | 4 to 8 (≈ 5.58 to 11.2 µM) | 16 to 32 (≈ 22.3 to 44.6 µM) | > 64 | 16 to 32 (≈ 22.3 to 44.6 µM) | 16 to 32 (≈ 22.3 to 44.6 µM)
5 | O=C(CN1CCN(C(=O)NC(C(=O)N[C@H]2Cc3ccc(F)c(C(=O)O)c3OB2O)c2cc(F)c(O)c(O)c2Cl)C(=O)C1=O)Nc1cccnc1 (stereo partly drawn) [Example 234, (3R)-3-(2-(2-chloro-5-fluoro-3,4-dihydroxyphenyl)-2-(2,3-dioxo-4-(2-oxo-2-(pyridin-3-ylamino)ethyl)piperazine-1-carboxamido)acetamido)-7-fluoro-2-hydroxy-3,4-dihydro-2H-benzo[e][1,2]oxaborinine-8-carboxylic acid] | < 10 | < 10 | < 1 | < 1 | < 1 | 2 to 4 (≈ 2.79 to 5.58 µM) | < 1 | < 1 | 1 to 2 (≈ 1.4 to 2.79 µM) | > 64 | 4 to 8 (≈ 5.58 to 11.2 µM) | 16 to 32 (≈ 22.3 to 44.6 µM) | > 64 | 16 to 32 (≈ 22.3 to 44.6 µM) | 16 to 32 (≈ 22.3 to 44.6 µM)
6 | O=C(CN1CCN(C(=O)NC(C(=O)N[C@H]2Cc3ccc(F)c(C(=O)O)c3OB2O)c2cc(F)c(O)c(O)c2Cl)C(=O)C1=O)Nc1nccs1 (stereo partly drawn) [Example 235, (3R)-3-(2-(2-chloro-5-fluoro-3,4-dihydroxyphenyl)-2-(2,3-dioxo-4-(2-oxo-2-(thiazol-2-ylamino)ethyl)piperazine-1-carboxamido)acetamido)-7-fluoro-2-hydroxy-3,4-dihydro-2H-benzo[e][1,2]oxaborinine-8-carboxylic acid] | < 10 | < 10 | < 1 | < 1 | < 1 | 2 to 4 (≈ 2.77 to 5.53 µM) | < 1 | < 1 | 1 to 2 (≈ 1.38 to 2.77 µM) | > 64 | 4 to 8 (≈ 5.53 to 11.1 µM) | 16 to 32 (≈ 22.1 to 44.3 µM) | > 64 | 16 to 32 (≈ 22.1 to 44.3 µM) | 16 to 32 (≈ 22.1 to 44.3 µM)
7 | O=C(CN1CCN(C(=O)NC(C(=O)N[C@H]2Cc3ccc(F)c(C(=O)O)c3OB2O)c2cc(F)c(O)c(O)c2Cl)C(=O)C1=O)NCc1cccc(O)c1 (stereo partly drawn) [Example 237, (3R)-3-(2-(2-chloro-5-fluoro-3,4-dihydroxyphenyl)-2-(4-(2-((3-hydroxybenzyl)amino)-2-oxoethyl)-2,3-dioxopiperazine-1-carboxamido)acetamido)-7-fluoro-2-hydroxy-3,4-dihydro-2H-benzo[e][1,2]oxaborinine-8-carboxylic acid] | < 10 | < 10 | < 1 | < 1 | < 1 | 2 to 4 (≈ 2.68 to 5.36 µM) | > 128 | 2 to 4 (≈ 2.68 to 5.36 µM) | 1 to 2 (≈ 1.34 to 2.68 µM) | > 64 | 4 to 8 (≈ 5.36 to 10.7 µM) | > 64 | > 64 | 16 to 32 (≈ 21.5 to 42.9 µM) | 16 to 32 (≈ 21.5 to 42.9 µM)
